Q: For CCc1c(C)[nH]c(C=C2C(=O)NN=C2CCc2ccc(N)cc2)c1C [Example 45, 3-(4-Aminophenylethyl)-4-[(3,5-dimethyl-4-ethylpyrrol-2-yl)methylene]-2-pyrazolin-5-one], which melting point is on record?
A: Its melting point is 183 to 185 °C.

Q: For CCOC1=NNC(=O)C1=Cc1ccc(C)[nH]1 [Example 46, 3-Ethoxy-4-[(5-methylpyrrol-2-yl)methylene]2-pyrazolin-5-one], which melting point is on record?
A: Its melting point is 197 to 199 °C.

Q: With CCc1c(C)[nH]c(C=C2C(=O)NN=C2CCc2ccc(C(N)=O)cc2)c1C [Example 47, 3-(4-Carbamoylphenylethyl)-4-[(3,5-dimethyl-4-ethylpyrrol-2-yl)methylene]-2-pyrazolin-5-one] as the compound, how does the melting point read?
A: Its melting point is 297 to 299 °C.

Q: Which melting point does the source give for CCOC(=O)c1c(C)[nH]c(C=C2C(=O)NN=C2OC(C)C)c1C [Example 49, 4-[(3,5-Dimethyl-4-ethoxycarbonylpyrrol-2-yl)methylene]-3-isopropoxy-2-pyrazolin-5-one] here?
A: The melting point was 226 to 228 °C.

Q: For CCOC(=O)c1c(C)[nH]c(C=C2C(=O)NN=C2CCc2ccc(N)cc2)c1C [Example 50, 3-(4-Aminophenylethyl)-4-[(3,5-dimethyl-4-ethoxycarbonylpyrrol-2-yl)methylene]-2-pyrazolin-5-one], which melting point is on record?
A: The melting point was 186 to 188 °C.

Q: Which melting point does the source give for CCc1ccc(C=C2C(=O)NN=C2OC(C)C)[nH]1 [Example 51, 4-[(5-Ethylpyrrol-2-yl)methylene]-3-isopropoxy-2-pyrazolin-5-one] here?
A: The melting point was 119 to 121 °C.

Q: For CCc1c(C)[nH]c(C=C2C(=O)NN=C2CCc2ccc(O)cc2)c1C [Example 52, 4-[(3,5-Dimethyl-4-ethylpyrrol-2-yl)methylene]-3-(4-hydroxyphenylethyl)-2-pyrazolin-5-one], which melting point is on record?
A: Its melting point is 260 to 262 °C.

Q: Which melting point does the source give for CCOC(=O)CC1=NNC(=O)C1=Cc1ccc[nH]1 [Example 53, 3-(Ethoxycarbonylmethyl)-4-[(pyrrol-2-yl)methylene]-2-pyrazolin-5-one] here?
A: Its melting point is 124 to 126 °C.

Q: With COc1ccc(NC(=O)CC2=NNC(=O)C2=Cc2ccc[nH]2)cc1 [Example 54, 3-(4-Methoxyphenylaminocarbonylmethyl)-4-[(pyrrol-2-yl)methylene]-2-pyrazolin-5-one] as the compound, how does the melting point read?
A: The melting point was 240 to 242 °C.

Q: With Cc1c[nH]c(C=C2C(=O)NN=C2C(C)C)c1CCC(=O)O [Example 55, 4-{(3-(2-Carboxyethyl)-4-methylpyrrol-2-yl]methylene}-3-isopropyl-2-pyrazolin-5-one] as the compound, how does the melting point read?
A: The melting point was 229 to 231 °C.

Q: For O=C1NN=C(C2CCC2)C1=Cc1ccc[nH]1 [Example 57, 3-Cyclobutyl-4-[(pyrrol-2-yl)methylene]-2-pyrazolin-5-one], which melting point is on record?
A: The melting point was 150 to 152 °C.

Q: Which melting point does the source give for O=C1NN=C(C2CC2)C1=Cc1cccn1-c1cc(Cl)cc(Cl)c1 [Example 59, 3-Cyclopropyl-4-[[1-(3,5-dichlorophenyl)pyrrol-2-yl)methylene]-2-pyrazolin-5-one] here?
A: Its melting point is 188 to 190 °C.

Q: For CC1(C)C(C2=NNC(=O)C2=Cc2ccc[nH]2)C1(C)C [Example 60, 4-[(Pyrrol-2-yl)methylene]-3-(2,2,3,3-tetramethylcyclopropyl)-2-pyrazolin-5-one], which melting point is on record?
A: The melting point was 160 to 162 °C.

Q: With Cc1cc(C)c(C=C2C(=O)NN=C2C2CC2)[nH]1 [Example 61, 3-Cyclopropyl-4-[(3,5-dimethylpyrrol-2-yl)methylene]-2-pyrazolin-5-one] as the compound, how does the melting point read?
A: The melting point was 193 to 195 °C.

Q: For O=C1NN=C(C2CCCC2)C1=Cc1ccc[nH]1 [Example 62, 3-Cyclopentyl-4-[(pyrrol-2-yl)methylene]-2-pyrazolin-5-one], which melting point is on record?
A: The melting point was 127 to 129 °C.

Q: For CC1CC1C1=NNC(=O)C1=Cc1ccc[nH]1 (centres unmarked) [Example 63, 3-(2-Methylcyclopropyl)-4-[(pyrrol-2-yl)methylene]-2-pyrazolin-5-one], which melting point is on record?
A: The melting point was 132 to 133 °C.

Q: Which melting point does the source give for CCc1c(C)[nH]c(C=C2C(=O)NN=C2C2CC2)c1C [Example 66, 3-Cyclopropyl-4[(3,5-dimethyl-4-ethylpyrrol-2-yl)methylene]-2-pyrazolin-5-one] here?
A: Its melting point is 206 to 210 °C.
